We go through 1 compound from patent US20130053243A1, “PLANTS HAVING INCREASED TOLERANCE TO HERBICIDES” (BASF SE, priority 2010, published 2013).

Structures are written as SMILES.

What is called Ki is the equilibrium dissociation constant of an inhibitor or competing ligand from its target.

For the test, the target named is Chlamydomonas HPPD2 (Chlamydomonas reinhardtii, UniProt A0A2K3DET5). As to the kind of experiment: HPPD activity assay, wildtype enzyme. The test is classed as biochemical. Conditions: calculated from IC50 with Cheng-Prusoff equation, read-out: dissociation constant Ki. The protocol:
HPPD produces homogentisic acid and CO2 from 4-hydroxyphenylpyruvate (4-HPP) and O2. The activity assay for HPPD is based on the analysis of homogentisic acid by reversed phase HPLC.
The assay mixture can contain 150 mM potassium phosphate buffer pH 7.0, 50 mM L-ascorbic acid, 1 μM FeSO4 and 7 μg of purified enzyme in a total volume of 1 ml.
Inhibitors are dissolved in DMSO (dimethylsulfoxide) to a concentration of 20 mM or 0.5 mM, respectively. From this stock solution serial five-fold dilutions are prepared in DMSO, which are used in the assay. The respective inhibitor solution accounts for 1% of the assay volume. […]
10 μl of the eluate is analyzed by reversed phase HPLC on a Symmetry® C18 column (particle size 3.5 μm, dimensions 4.6×100 mm; Waters) using 5 mM H3PO4/15% ethanol (w/w) as an eluent.
Homogentisic acid is detected electrochemically and quantified by measuring peak areas (Empower software; Waters).
Activities are normalized by setting the uninhibited enzyme activity to 100%. IC50 values are calculated using non-linear regression. […]
5 μl of the cleared sample is analyzed on an Atlantis T3 column (particle size 3 μm, dimensions 3×50 mm; Waters) by isocratic elution using 90% 10 mM NaH2PO4 pH 2.2, 10% methanol (v/v).
HGA is detected electrochemically at 750 mV (mode: DC; polarity: positive) and quantified by integrating peak areas (Empower software; Waters). […]

Sequence of Chlamydomonas HPPD2 (A0A2K3DET5 entry or part of it): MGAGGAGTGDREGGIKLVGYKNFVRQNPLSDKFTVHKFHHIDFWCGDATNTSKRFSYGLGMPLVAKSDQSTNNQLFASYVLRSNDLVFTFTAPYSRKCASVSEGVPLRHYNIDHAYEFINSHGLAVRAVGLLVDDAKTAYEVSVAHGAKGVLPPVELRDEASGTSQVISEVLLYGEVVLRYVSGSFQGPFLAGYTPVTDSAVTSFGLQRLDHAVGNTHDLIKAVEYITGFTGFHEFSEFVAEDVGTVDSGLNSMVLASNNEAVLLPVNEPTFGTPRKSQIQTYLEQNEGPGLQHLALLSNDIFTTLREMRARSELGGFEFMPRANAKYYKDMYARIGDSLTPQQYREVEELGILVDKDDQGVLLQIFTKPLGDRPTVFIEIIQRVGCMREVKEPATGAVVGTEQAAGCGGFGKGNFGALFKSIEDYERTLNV

Regarding `CC1=NOC(c2c(Cl)ccc(C3=C(O)c4ncccc4N(CC(F)F)S3(=O)=O)c2Cl)C1` (stereo not shown) [Inhibitor 1, 3-[2,4-dichloro-3-(3-methyl-4,5-dihydroisoxazol-5-yl)phenyl]-1-(2,2-difluoroethyl)-2,2-dioxo-pyrido[3,2-c]thiazin-4-ol], the Ki is 8 nM.
